Measurements published in PubChem BioAssay (NCI).
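Exposure lasted 48 hours, with cells grown in 96-well plates and compounds tested at five concentrations. Here, GI50 denotes the concentration required for 50% inhibition of growth. TGI: total growth inhibition.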

Columns and labels:
Test in all cases: NCI anticancer screen, dose series, 48 h
KM12 colon = test system: KM12 colon
NCI-H226 lung = test system: NCI-H226 lung
SW-620 colon = test system: SW-620 colon
DU-145 prostate = test system: DU-145 prostate
M14 melanoma = test system: M14 melanoma
SK-MEL-28 melanoma = test system: SK-MEL-28 melanoma
HL-60(TB) leukemia = test system: HL-60(TB) leukemia
RPMI-8226 leukemia = test system: RPMI-8226 leukemia
UO-31 renal = test system: UO-31 renal
HCC-2998 colon = test system: HCC-2998 colon

Row | SMILES | TGI (KM12 colon) [µM] | TGI (NCI-H226 lung) [µM] | TGI (SW-620 colon) [µM] | TGI (DU-145 prostate) [µM] | TGI (M14 melanoma) [µM] | TGI (SK-MEL-28 melanoma) [µM] | TGI (HL-60(TB) leukemia) [µM] | TGI (RPMI-8226 leukemia) [µM] | TGI (UO-31 renal) [µM] | TGI (HCC-2998 colon) [µM] | GI50 (KM12 colon) [µM] | GI50 (NCI-H226 lung) [µM] | GI50 (DU-145 prostate) [µM] | GI50 (M14 melanoma) [µM] | GI50 (SK-MEL-28 melanoma) [µM] | GI50 (HL-60(TB) leukemia) [µM] | GI50 (RPMI-8226 leukemia) [µM] | GI50 (UO-31 renal) [µM] | GI50 (HCC-2998 colon) [µM] | GI50 (SW-620 colon) [µM]
1 | c1ccc(-c2cnc3nc4ccccc4nc3n2)cc1 | 21.8 | 19.7 | 18 | 19.6 | 25.6 | 32.8 | > 100 | 23.9 | 19.5 | 43.3 |  |  |  |  |  |  |  |  |  | 
2 | O=S1(=O)CC(Br)C(Br)C1 (centres undefined) | 32.4 | 11.2 |  | 15.9 | 20.8 | 13.7 | 8.75 | 41.2 | 14.7 | 28.9 | 13.4 | 1.49 | 4.21 | 5.67 | 3.64 | 3.5 | 12.3 | 3.77 | 14.9 | 
3 | Cc1cc(Cl)ccc1NC(=O)NC(C)(C)COC(=O)Nc1cccc(Cl)c1 | 17.6 | > 100 | > 100 | > 100 | > 100 | > 100 | 71.9 | 15.3 | 80.7 | > 100 | 3.78 | 13.6 | 11.2 | 8.38 | 22.3 | 9.71 | 3.26 | 7.11 | 11.3 | 7.45
4 | COc1cc(CC2CC(c3ccc4c(c3)OCO4)OC2=O)cc(OC)c1OC (centres undefined) | > 100 | > 100 | > 100 | > 100 | > 100 | > 100 | > 100 | > 100 | 82.4 | > 100 |  |  |  |  |  |  |  |  |  | 
5 | COc1cccc2ccc3c(c12)C(=O)OC31CCc2c(C)cccc21 (centres undefined) | > 100 | > 31.6 | > 46.4 | > 100 | > 46.4 | > 46.4 | 32.9 | 21.5 | 26.3 | > 46.4 |  |  |  |  |  |  |  |  |  | 
6 | N#C/C(=C\c1cccnc1)c1nc2ccccc2o1 | > 100 | > 100 | > 100 | > 100 | > 100 | > 100 | > 100 | > 100 | > 100 | > 100 | > 100 | > 100 | > 100 | > 100 | > 100 | > 100 | > 100 | 43.1 | > 100 | > 100
7 | N#Cc1ccc2c(c1)C(=O)c1c-2n(CCCN=[N+]=[N-])c(=O)c2cc([N+](=O)[O-])ccc12 | > 50 | > 50 | > 50 | > 50 | > 50 | > 50 | > 50 | > 50 | > 50 | > 50 | > 50 | 40 | 7.16 | 29.9 | > 50 | > 50 | 21.3 | 13.1 | > 50 | 3.5
8 | C=C1C[C@@H]2[C@H](CC[C@]3(C)C(=O)CC[C@@H]23)[C@@]2(C)C=CC(=O)C=C12 | > 70 | > 60 | > 100 | > 100 | > 48.7 | > 100 | > 63.4 | > 56.6 | > 56.5 | 33.5 | 30.7 | 20.2 | > 65.8 | 20.4 | 42.5 | 26 | 19.7 | 22 | 18.1 | 34.7
9 | CCC(=O)OC1=CN2C(=NC(c3ccc(N)cc3)=CC2c2cc(OC)c(OC)c(OC)c2)S1 (centres undefined) | 11.7 | > 100 | 10.7 | 13.1 | 17.6 | 18.3 | > 100 | 10 | 13.6 | 15.7 | 3.48 | 7.47 | 3.58 | 4.18 | 5.54 | 3.01 | 2.44 | 3.15 | 4.47 | 2.89
10 | COc1cc(/C=C/c2cc(/C=C/c3ccc(O)c(OC)c3)[nH]c(=O)n2)ccc1O | 14.2 | 22.5 | 16.6 | 35.4 | 15.4 | 13.1 | 12.1 | 5.68 | 58.6 | 14.3 | 3.44 | 3.48 | 4.91 | 3.12 | 3.05 | 3.74 | 2.1 | 3.71 | 3.55 | 3.17
11 | CC(=O)O[C@H](C[C@H](C(C)C)N(C)C(=O)[C@@H](NC(=O)[C@H]1CCCCN1C)C(C)(C)C)c1nc(C(=O)N[C@@H](Cc2ccccc2)C[C@H](C)C(=O)O)cs1 |  |  | > 25 |  |  | > 25 | < 0.0025 | > 25 | > 25 | > 8.5 | < 0.0025 | 0.0348 | < 0.0025 | < 0.0025 | 1.05 | < 0.0025 | < 0.0025 | 0.0192 | < 0.0025 | < 0.0025
12 | COc1cc(/C=C\c2cc(OC)c(OC)c(OC)c2)cc(NS(=O)(=O)c2cccc(Cl)c2)c1OC | > 100 | > 100 | > 100 | > 100 | > 100 | 49 | > 100 | > 100 | > 100 | 60.6 | 0.0437 | 0.311 | 0.0676 | 0.0344 | 1.61 | 0.032 | 0.0597 | 0.0937 | 0.313 | 0.0438
13 | CN(C)CCNc1c2c(c(NCCN(C)C)c3c(CO)c[nH]c13)C(=O)c1ccccc1C2=O | 5.73 | 26.3 | 7.57 | 12.7 | 4.57 | 10.6 | > 100 | 12.8 | 23.2 | 5.46 | 1.03 | 7.37 | 2.17 | 2.04 | 5.01 | 29.9 | 2.17 | 3.31 | 1.43 | 1.87
